Results on four compounds are retold here after patent US20200248178A1, “COMBINATION THERAPIES FOR TREATING MUSCULAR DYSTROPHY” (Sarepta Therapeutics, Inc., priority 2017, published 2020).

Where “and” joins values, the source holds several entries; their conditions need not be identical. Identical values can stand only once. Bounds are passed on as bounds.

Data set [1] has as its system dystrophin. The data set is described as follows: Study 201/202 Week 180 muscle biopsy, Western blot. The data set is classed as in vivo, human. The procedure: (§1) All 12 patients who participated in Study 1 continued treatment with open-label EXONDYS 51® weekly for an additional 4 years in Study 2. The 4 patients who had been randomized to placebo were re-randomized 1:1 to EXONDYS 51® 30 or 50 mg/kg/week such that there were 6 patients on each dose. Patients who participated in Study 2 were compared to an external control group. The primary clinical efficacy outcome measure was the 6MWT. […] The average dystrophin protein level after 180 weeks of treatment with EXONDYS 51® was 0.93% of the dystrophin level in healthy subjects.
(§2) In order to obtain a comprehensive view of dystrophin expression, biopsies from Study 201/202 were analyzed by three complementary assays. First, Western blot was used to quantitate dystrophin following extraction of protein from muscle tissue. Second, immunohistochemical (IHC) images were evaluated by trained, blinded pathologists to assess the percent dystrophin positive fibers (PDPF), providing information on sarcolemma localization and distribution of dystrophin in muscle fibers. Finally, the IHC images were also assessed by a computer algorithm to measure fiber intensity and to quantify dystrophin at the sarcolemmal membrane.
Background: A western blot detects proteins with antibodies after separation by electrophoresis.

Data set [2] concerns dystrophin. The data set is described as follows: Study 201/202 Week 180 biopsy, IHC percent dystrophin positive fibers (PDPF). The data set is classed as in vivo, human. The procedure: as §2
Data set [3] concerns DMD patients amenable to exon 51 skipping. The data set is described as follows: 6 Minute Walk Test, Study 201/202 vs external control. The data set is classed as in vivo, human. The procedure:
In Study 1, patients were randomized to receive weekly infusions of EXONDYS 51° (30 mg/kg, n=4); EXONDYS 51° (50 mg/kg, n=4), or placebo (n=4) for 24 weeks. The primary endpoint was dystrophin production; a clinical outcome measure, the 6-minute walk test (6MWT), was also assessed. The 6MWT measures the distance that a patient can walk on a flat, hard surface in a period of 6 minutes.
as §1
The pre-specified criteria for identification of patients for the external control groups were based on the inclusion criteria for Study 201/202. These included baseline age, steroid use and specific DMD mutation. Each of these represent key prognostic factors that enable identification of a relatively homogenous population that would be expected to decline on the 6MWT.
A group with DMD mutations amenable to exon 51 skipping therapy (N=13, primary external control group).
The 6MWT assessments in both Study 201/202 and the external registries were conducted in a standardized manner according to international guidelines.

The test system is the same in data set [4]. Nature of the data set: Loss of ambulation, Study 201/202 vs external controls. The data set is classed as in vivo, human. An excerpt: Ambulatory compromise and irreversible loss of ambulation (LOA) are hallmarks of the progressive muscle degeneration characteristic of DMD. It is a reliable overall indicator of the severity of disease progression and strongly correlates with functional measures such as the 6MWT; it is also less influenced by motivational factors. Furthermore, LOA predicts other major disease milestones such as the need for ventilatory support and survival (Bello 2016). Once confined to a wheelchair, other symptoms tend to follow in rapid succession. Consistent with results of the 6MWT, fewer eteplirsen treated boys lost ambulation (2/12) compared to the external control patients who were amenable to exon 51 skipping therapy (10/13) over the four year time period.
Kaplan-Meier analyses for loss of ambulation were conducted, accounting for missing data. At year three the estimated probability for loss of ambulation was 17% for eteplirsen treated boys compared to 46% of boys from both external control cohorts. At year four, Kaplan-Meier estimates of loss of ambulation was 17% for eteplirsen treated boys compared to 85% for the external control boys amenable to exon 51 skipping. This difference in loss of ambulation over the 4-year period was statistically significant, with a nominal p-value of 0.011 (FIG. 8).

Data set [5] concerns DMD patients. Nature of the data set: Ability to rise from supine without external support. Conditions: by year three; external control 8%. The data set is classed as in vivo, human. From the text: The ability to rise from supine is a critical activity for DMD patients, is one of the early abilities to be lost and may be predictive of loss of ambulation. In an analysis comparing the ability to rise from a supine position (without external support), 92% of eteplirsen treated vs 85% external control patients had the ability to rise without external support at baseline. By year three, 55% of eteplirsen vs 8% of external control patients had the ability to rise without external support.

Data set [6] relates to DMD patients. Nature of the data set: North Star Ambulatory Assessment (NSAA). The data set is classed as in vivo, human. The settings on record: end of year three; vs Italian Telethon group. An excerpt:
The NSAA is a clinician-reported outcome instrument specifically designed to measure function in ambulatory patients with DMD. The 17 items are each scored on a 0-2 ordinal scale and include assessments of abilities such as rising from the floor, climbing and descending a step, 10 meter walk/run and lifting the head. Over the first year, both the eteplirsen treated boys and the Italian Telethon group declined at a similar rate. However, following year one, as was observed on 6MWT, the decline in function for the eteplirsen group slowed and by the end of year three there was a 2.4 point greater decline for the untreated boys. This difference is of clinical relevance and may represent loss or impairment of up to 2 activities of daily living.

A further data set has as its system immune response. Also noted: species or system juvenile rats. Conditions: rat, in vivo. An excerpt:
Phosphorothioates are known to cause a number of other target organ toxicities in animals, including complement activation and pro-inflammatory effects, coagulopathies, thrombocytopenia, vascular injury, and hepatic Kuppfer cell basophilia (Levin 1998; Monteith 1999; Levin 2001; Henry 2008; Frazier 2014; Engelhardt 2015; Frazier 2015).

Data set [7] deals with exon 51 of dystrophin pre-mRNA. Conditions: normal human skeletal muscle cells or DMD patient muscle cells; cited from earlier work.
In data set [8] the test system is exon 51 of dystrophin pre-mRNA. Conditions: hDMD mouse model; cited from earlier work.
The subject of data set [9] is dystrophin. The data set is described as follows: Study 3 (Study 301): dystrophin in muscle biopsy by Western blot. Format: in vivo, human. The procedure:
Dystrophin levels in muscle tissue were assessed by Western blot. In the 12 patients with evaluable results, the pre-treatment dystrophin level was 0.16%±0.12% (mean±standard deviation) of the dystrophin level in a healthy subject and 0.44%±0.43% after 48 weeks of treatment with EXONDYS 51® (p<0.05). The median increase after 48 weeks was 0.1%.

In data set [10] the test system is DMD patients. Nature of the data set: Pulmonary function tests (FVC % predicted). The data set is classed as in vivo, human. Conditions: literature >5% annual decline. An excerpt: In some embodiments, MEP may decline before changes in other pulmonary function tests, including MIP and FVC. In certain embodiments, MEP may be an early indicator of respiratory dysfunction. In certain embodiments, FVC may be used to measure the total volume of air expelled during forced exhalation after maximum inspiration. In patients with DMD, FVC increases concomitantly with physical growth until the early teens. However, as growth slows or is stunted by disease progression, and muscle weakness progresses, the vital capacity enters a descending phase and declines at an average rate of about 8 to 8.5 percent per year after 10 to 12 years of age. In certain embodiments, MIP percent predicted (MIP adjusted for weight), MEP percent predicted (MEP adjusted for age) and FVC percent predicted (FVC adjusted for age and height) are supportive analyses.
Respiratory function in DMD is progressively impaired over time as the dystrophic process affects respiratory muscles, including the diaphragm, leading to significant morbidity and mortality. Eteplirsen treated boys had slower deterioration of respiratory muscle function as measured by FVC % predicted (decrease of ˜2.5% per year) when compared to data from the published literature (>5% annual decline). […]

Data set [11] concerns dystrophin. Nature of the data set: Study 201/202 Week 180 biopsy, IHC fiber intensity. The data set is classed as in vivo, human. The procedure:
as §2

The next data set has as its system NF-κB pathways. Conditions: phase I, adults; cited from earlier work.
In the next data set the test system is cNF-κB. Conditions: cited from earlier work.
For another data set, the system named is Mdx mice. Conditions: cited from earlier work.
The next data set concerns NF-κB. The settings on record: cited from earlier work.
The subject of another data set is patient cells. The settings on record: cited from earlier work.
The subject of the next data set is mouse model of DMD. The settings on record: cited from earlier work.

As for Eteplirsen, the “Difference of Means (Treated vs. Untreated)” value in the data set with dystrophin [1] (Western Blot, Week 180) was “+0.85%”; in the data set on dystrophin [2], “+16.27%”; in the data set with dystrophin [11], “+13.20%”. Besides, the “Treated (Mean % Dystrophin of Normal)” value with dystrophin [1] (Western Blot, Week 180) turned out to be 0.93%; in the data set with dystrophin [2], 17.39%; with dystrophin [11], 22.61%. For the same compound, the “Fold Increase in de novo dystrophin” value in the data set on dystrophin [1] (Western Blot, Week 180, relative to untreated controls) is 11.6 fold. In addition, the “average dystrophin protein level after 180 weeks of treatment” value in the data set on dystrophin [1] (Western blot, eleven patients, 30 or 50 mg/kg/week) is on record as 0.93 % of the dystrophin level in healthy subjects. For the same compound, the “Fold Increase” value in the data set on dystrophin [2] (treated vs untreated) was 15.5 fold; with dystrophin [11] (treated vs untreated) it was 2.4 fold. The “6MWT treatment benefit in sensitivity analyses” value in [3] (four year results, covariates age, 6MWT, steroid use) is on record as more than 100 meter. For the same compound, the “6MWT advantage vs external control” value in data set [3] (year four, p=0.0005) came to 162 meter; in [3] (year three, N=12 vs N=13, p=0.005) it was 148 meter. Moreover, the “boys who lost ambulation” value is recorded as 2/12 in data set [4] (over a three year time period, external control (any exon skipping) 18/50) and 2/12 in data set [4] (over the four year time period, external control 10/13). Further, the “Kaplan-Meier estimate of loss of ambulation” value in [4] (year four, external control 85%, p 0.011) was 17%. In addition, the “Kaplan-Meier estimated probability for loss of ambulation” value in [4] (year three, external controls 46%) is on record as 17%. In addition, the “patients with ability to rise without external support” value in the data set on DMD patients [5] is given as 55%. Also, the “NSAA: greater decline for the untreated boys” value with DMD patients [6] turned out to be 2.4 point. Besides, the “effect on the immune response” value in the data set on immune response was “no adverse effect on the immune response”. For the same compound, the “induction of exon 51 skipping in vitro” value in [7] is given as “potent inducer of exon 51 skipping”. The “exon 51 skipping in vivo” value in [8] was “confirmed in vivo”. Moreover, the “Week 48 % normal dystrophin” value in the data set with dystrophin [9] (30 mg/kg weekly, week 48, individual patients 1-12 and mean, listed as EXONDYS 51, 30 mg/kg) is 0.10 % normal dystrophin and 1.02 % normal dystrophin and 0.30 % normal dystrophin and 0.42 % normal dystrophin and 1.57 % normal dystrophin and 0.12 % normal dystrophin and 0.47 % normal dystrophin and 0.09 % normal dystrophin and 0.21 % normal dystrophin and 0.26 % normal dystrophin and 0.36 % normal dystrophin and 0.37 % normal dystrophin. In addition, the “median increase in dystrophin after 48 weeks” value in the data set on dystrophin [9] (12 evaluable patients) turned out to be 0.1%. Further, in the data set with dystrophin [9] (12 evaluable patients, 30 mg/kg weekly, p<0.05 vs pre-treatment), the “dystrophin level after 48 weeks of treatment (mean±standard deviation)” value was 0.44%±0.43%. For the same compound, in the data set with dystrophin [9] (week 48 vs pre-treatment baseline, individual patients 1-12 and mean, listed as EXONDYS 51), the “Change from Baseline % normal dystrophin” value was 0.06 % normal dystrophin and 0.85 % normal dystrophin and −0.07 % normal dystrophin and 0.25 % normal dystrophin and 1.33 % normal dystrophin and 0.01 % normal dystrophin (2×) and 0.43 % normal dystrophin and 0.07 % normal dystrophin and 0.03 % normal dystrophin and 0.13 % normal dystrophin and 0.31 % normal dystrophin. In addition, the “FVC % predicted decrease” value with DMD patients [10] is listed as approximately 2.5 % per year.
As for `CC/C=C\C/C=C\C/C=C\C/C=C\C/C=C\C/C=C\CCC(=O)NCCNC(=O)c1ccccc1O` [CAT-1004, N-(2-[(4Z,7Z,10Z,13Z,16Z,19Z)-docosa-4,7,10,13,16,19-hexaenamido]ethyl)-2-hydroxybenzamide], the safety and tolerability result with NF-κB pathways is “safe, well tolerated”.
For the compound `CC/C=C\C/C=C\C/C=C\C/C=C\C/C=C\CCCC(=O)NCCNC(=O)c1ccccc1O` [CAT-1041], the “cNF-κB activation in vitro” value in the data set on cNF-κB was “inhibit cNF-κB activation in vitro”. Moreover, in the data set on Mdx mice (mdx mice), the exercise endurance entry is “increased exercise endurance”; the inflammation and fibrosis result is “reduced inflammation and fibrosis”; the muscle function result is listed as “preserves muscle function”. Moreover, in the data set with Mdx mice (mdx mice, long-term studies), the muscle fibrosis result is “reduces muscle fibrosis” and the skeletal muscle weight entry is given as “increases skeletal muscle weight”. In addition, in the data set with Mdx mice (mdx mouse, long-term treatment), the phenotype entry is reported as “improves the phenotype”. The diaphragm function result with Mdx mice (mouse DMD model) is “improved diaphragm function”. The phenotype entry in the data set on NF-κB (GRMD dog, long-term treatment) was “improves the phenotype”. Besides, the diaphragm function entry with NF-κB (dog DMD model) was “improved diaphragm function”.
Regarding `O=C1CN(/N=C/c2ccc(-c3ccc([N+](=O)[O-])cc3)o2)C(O)=N1` [dantrolene], the antisense-mediated exon skipping entry with patient cells and in the data set on mouse model of DMD was “enhance antisense-mediated exon skipping” throughout.
